Measurements taken from US10259810B2, “N-sulfonylated pyrazolo[3,4-b]pyridin-6-carboxamides and method of use” (AbbVie S.à.r.l., priority 2015, dated 2019).

Columns and labels:
[1] = target: T1, ΔF508-CFTR (Homo sapiens, UniProt P13569, DEL508-508); test: CFTR cell surface levels using HRP-tagged ΔF508-CFTR expressing CFBE cells, intrinsic corrector capacity; type: cell-based; design: % Activation: concentration or dose not given beside the values; conditions: HRP-tagged ΔF508-CFTR expressing CFBE41o- cells, compound alone (intrinsic corrector capacity), 20 hours at 33° C.; for EC50: read-out: EC50
T1 construct: host or cells: CFBE41o-, doxycycline-inducible
T1 sequence (P13569 with tags, fused parts or gaps DEL508-508): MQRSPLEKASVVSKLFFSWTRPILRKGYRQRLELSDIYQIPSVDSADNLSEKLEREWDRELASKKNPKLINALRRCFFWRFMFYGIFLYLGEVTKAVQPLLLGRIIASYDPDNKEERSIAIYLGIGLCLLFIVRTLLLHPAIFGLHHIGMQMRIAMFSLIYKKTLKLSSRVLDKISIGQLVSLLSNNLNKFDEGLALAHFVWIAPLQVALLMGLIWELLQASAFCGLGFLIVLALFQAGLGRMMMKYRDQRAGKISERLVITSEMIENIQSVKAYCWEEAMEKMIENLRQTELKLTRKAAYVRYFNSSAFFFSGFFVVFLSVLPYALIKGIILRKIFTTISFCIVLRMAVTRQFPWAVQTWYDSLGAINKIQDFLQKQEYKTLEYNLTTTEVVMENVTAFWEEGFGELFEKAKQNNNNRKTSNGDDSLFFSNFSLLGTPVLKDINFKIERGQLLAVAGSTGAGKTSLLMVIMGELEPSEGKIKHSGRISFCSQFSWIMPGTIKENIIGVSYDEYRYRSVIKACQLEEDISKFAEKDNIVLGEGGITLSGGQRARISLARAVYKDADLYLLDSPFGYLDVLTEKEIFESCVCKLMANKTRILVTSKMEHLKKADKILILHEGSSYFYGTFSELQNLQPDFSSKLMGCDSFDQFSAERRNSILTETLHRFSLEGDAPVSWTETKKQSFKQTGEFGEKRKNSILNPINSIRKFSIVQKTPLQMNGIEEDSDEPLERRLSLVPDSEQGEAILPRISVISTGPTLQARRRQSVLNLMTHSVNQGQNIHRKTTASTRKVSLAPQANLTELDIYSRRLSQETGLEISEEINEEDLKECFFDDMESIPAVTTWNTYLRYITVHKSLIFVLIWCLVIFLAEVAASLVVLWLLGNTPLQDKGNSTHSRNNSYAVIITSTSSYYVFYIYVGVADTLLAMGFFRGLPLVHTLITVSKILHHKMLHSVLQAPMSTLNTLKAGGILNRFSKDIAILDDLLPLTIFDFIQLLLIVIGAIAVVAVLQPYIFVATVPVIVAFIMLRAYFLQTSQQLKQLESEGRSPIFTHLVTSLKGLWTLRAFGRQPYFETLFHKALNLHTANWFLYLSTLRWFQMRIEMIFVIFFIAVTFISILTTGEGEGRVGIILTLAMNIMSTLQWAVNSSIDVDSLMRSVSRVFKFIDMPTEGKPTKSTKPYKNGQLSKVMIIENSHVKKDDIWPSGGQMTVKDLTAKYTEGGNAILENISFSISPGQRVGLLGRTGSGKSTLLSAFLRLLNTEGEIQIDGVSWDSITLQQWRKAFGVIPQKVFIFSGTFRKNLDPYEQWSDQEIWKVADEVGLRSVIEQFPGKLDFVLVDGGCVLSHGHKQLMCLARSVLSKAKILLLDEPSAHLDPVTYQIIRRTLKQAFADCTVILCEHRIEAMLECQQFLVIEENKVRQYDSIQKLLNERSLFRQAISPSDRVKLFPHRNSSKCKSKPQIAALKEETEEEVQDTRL
Method in brief: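 Read-out: chemiluminescent HRP activity of ECL4-HRP-tagged ΔF508-CFTR at the cell surface, 15 min substrate in dark. Normalized as 100×(sample−DMSO)/(positive control−DMSO).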

[2] = target: T1, ΔF508-CFTR; test: CFTR cell surface levels using HRP-tagged ΔF508-CFTR expressing CFBE cells, in the presence of a co-corrector; type: cell-based; conditions: HRP-tagged ΔF508-CFTR CFBE cells, in the presence of 3 μM co-corrector; for EC50: read-out: EC50
Method in brief: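 Chemiluminescent read-out of surface HRP (15 min, dark) after PBS washes. Activity is normalized as 100×(sample−DMSO)/(3 μM co-corrector alone−DMSO).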

| SMILES | % Activation [1] | % Activation [2] | EC50 [2] | EC50 [1] |
| --- | --- | --- | --- | --- |
| COCC1CCN(Cc2cc(C(=O)NS(=O)(=O)N(C)C)nc3c2c(C2CCC2)nn3-c2ccc(F)cc2)CC1 [Compound 521, 3-cyclobutyl-N-(dimethylsulfamoyl)-1-(4-fluorophenyl)-4-{[4-(methoxymethyl)piperidin-1-yl]methyl}-1H-pyrazolo[3,4-b]pyridine-6-carboxamide] | 31.93% | 217.3% | 712 nM |  |
| COC1CCN(C2CCN(c3cc(C(=O)NS(=O)(=O)N(C)C)nc4c3c(C3CCC3)nn4-c3ccc(F)cc3)CC2)C1 (stereo not shown) [Compound 524, 3-cyclobutyl-N-(dimethylsulfamoyl)-1-(4-fluorophenyl)-4-[4-(3-methoxypyrrolidin-1-yl)piperidin-1-yl]-1H-pyrazolo[3,4-b]pyridine-6-carboxamide] | 209.35% | 398.75% | 308 nM | 525 nM |
| CN(C1CCOCC1)C1CCN(c2cc(C(=O)NS(=O)(=O)N(C)C)nc3c2c(C2CCC2)nn3-c2ccc(F)cc2)CC1 [Compound 528, 3-cyclobutyl-N-(dimethylsulfamoyl)-1-(4-fluorophenyl)-4-{4-[methyl(oxan-4-yl)amino]piperidin-1-yl}-1H-pyrazolo[3,4-b]pyridine-6-carboxamide] | 185.8% | 357.9% | 834 nM | 859 nM |
| COCC1CCN(c2cc(C(=O)NS(=O)(=O)N(C)C)nc3c2c(C2CCC2)nn3-c2ccnc(C3CCOCC3)c2)CC1 [Compound 531, 3-cyclobutyl-N-(dimethylsulfamoyl)-4-[4-(methoxymethyl)piperidin-1-yl]-1-[2-(oxan-4-yl)pyridin-4-yl]-1H-pyrazolo[3,4-b]pyridine-6-carboxamide] | 182.8% | 349.65% | 63.5 nM | 234 nM |
| CN(C)S(=O)(=O)NC(=O)c1cc(N2CCC(N3CC4CC3CO4)CC2)c2c(C3CCC3)nn(-c3ccc(F)cc3)c2n1 (stereo not shown) [Compound 532, 3-cyclobutyl-N-(dimethylsulfamoyl)-1-(4-fluorophenyl)-4-[4-(2-oxa-5-azabicyclo[2.2.1]heptan-5-yl)piperidin-1-yl]-1H-pyrazolo[3,4-b]pyridine-6-carboxamide] | 151.95% | 342.83% | 473 nM | 521 nM |
| CN(C)S(=O)(=O)NC(=O)c1cc(N2CCC3(CC2)CC(N2CCOCC2)CO3)c2c(C3CCC3)nn(-c3ccc(F)cc3)c2n1 (stereo not shown) [Compound 533, 3-cyclobutyl-N-(dimethylsulfamoyl)-1-(4-fluorophenyl)-4-[3-(morpholin-4-yl)-1-oxa-8-azaspiro[4.5]decan-8-yl]-1H-pyrazolo[3,4-b]pyridine-6-carboxamide] | 156.3% | 322.45% | 221 nM | 222 nM |
| CC(C)Oc1nn(C2CCCCC2)c2nc(C(=O)NS(=O)(=O)N(C)C)cc(-c3ccc(N4CCN(C(C)C)CC4)cc3)c12 [Compound 534, 1-cyclohexyl-N-(dimethylsulfamoyl)-3-[(propan-2-yl)oxy]-4-{4-[4-(propan-2-yl)piperazin-1-yl]phenyl}-1H-pyrazolo[3,4-b]pyridine-6-carboxamide] | 105% | 289.35% | 344 nM | 241 nM |
| CN(C)S(=O)(=O)NC(=O)c1cc(-c2ccc(N3CCN(C4CC4)CC3)nc2)c2c(C3CCC3)nn(C3CCCCC3)c2n1 [Compound 536, 3-cyclobutyl-1-cyclohexyl-4-[6-(4-cyclopropylpiperazin-1-yl)pyridin-3-yl]-N-(dimethylsulfamoyl)-1H-pyrazolo[3,4-b]pyridine-6-carboxamide] | 125.1% | 341.15% | 280 nM | 225 nM |
| COC1CCN(S(=O)(=O)NC(=O)c2cc(N3CCC(N4CCOCC4)CC3)c3c(C4CCC4)nn(-c4ccc(F)cc4)c3n2)C1 (stereo not shown) [Compound 538, 3-cyclobutyl-1-(4-fluorophenyl)-N-(3-methoxypyrrolidine-1-sulfonyl)-4-[4-(morpholin-4-yl)piperidin-1-yl]-1H-pyrazolo[3,4-b]pyridine-6-carboxamide] | 228.9% | 427.95% | 358 nM | 2070 nM |
| CN(C)S(=O)(=O)NC(=O)c1cc(-c2ccc(N3CCC(C#N)CC3)nc2)c2c(C3CCC3)nn(-c3ccccc3)c2n1 [Compound 539, 4-[6-(4-cyanopiperidin-1-yl)pyridin-3-yl]-3-cyclobutyl-N-(dimethylsulfamoyl)-1-phenyl-1H-pyrazolo[3,4-b]pyridine-6-carboxamide] | 234.5% | 429.3% | 38.6 nM | 71.7 nM |
| COCC1CCN(S(=O)(=O)NC(=O)c2cc(N3CCC(N4CCOCC4)CC3)c3c(C4CCC4)nn(-c4ccc(F)cc4)c3n2)CC1 [Compound 540, 3-cyclobutyl-1-(4-fluorophenyl)-N-[4-(methoxymethyl)piperidine-1-sulfonyl]-4-[4-(morpholin-4-yl)piperidin-1-yl]-1H-pyrazolo[3,4-b]pyridine-6-carboxamide] | 248.8% | 443.3% | 103 nM | 123 nM |
| CC(C)N1CCN(c2ccc(-c3cc(C(=O)NS(=O)(=O)N(C)C)nc4c3c(C3CCC3)nn4C3CCCCC3)cn2)CC1 [Compound 542, 3-cyclobutyl-1-cyclohexyl-N-(dimethylsulfamoyl)-4-{6-[4-(propan-2-yl)piperazin-1-yl]pyridin-3-yl}-1H-pyrazolo[3,4-b]pyridine-6-carboxamide] | 153.2% | 320.3% | 216 nM | 267 nM |
| CC(c1ccc(-c2cc(C(=O)NS(=O)(=O)N(C)C)nc3c2c(C2CCC2)nn3C2CCCCC2)cc1)N1CCOCC1 (stereo not shown) [Compound 543, 3-cyclobutyl-1-cyclohexyl-N-(dimethylsulfamoyl)-4-{4-[1-(morpholin-4-yl)ethyl]phenyl}-1H-pyrazolo[3,4-b]pyridine-6-carboxamide] | 115.7% | 336.1% | 139 nM | 238 nM |
| CC(C)Oc1nn(C2CCCCC2)c2nc(C(=O)NS(C)(=O)=O)cc(-c3ccc(C(=O)N4CCC(N(C)C)CC4)cc3)c12 [Compound 544, 1-cyclohexyl-4-{4-[4-(dimethylamino)piperidine-1-carbonyl]phenyl}-N-(methanesulfonyl)-3-[(propan-2-yl)oxy]-1H-pyrazolo[3,4-b]pyridine-6-carboxamide] | 135.3% | 344.9% | 2000 nM | 3330 nM |
| COCCS(=O)(=O)NC(=O)c1cc(-c2ccc(C(=O)N3CCC(N(C)C)CC3)cc2)c2c(OC(C)C)nn(C3CCCCC3)c2n1 [Compound 545, 1-cyclohexyl-4-{4-[4-(dimethylamino)piperidine-1-carbonyl]phenyl}-N-(2-methoxyethanesulfonyl)-3-[(propan-2-yl)oxy]-1H-pyrazolo[3,4-b]pyridine-6-carboxamide] | 112.7% | 318.7% | 1910 nM | 3330 nM |
| COC1CCN(C2CCN(c3cc(C(=O)NS(C)(=O)=O)nc4c3c(C3CCC3)nn4-c3ccc(F)cc3)CC2)CC1 [Compound 548, 3-cyclobutyl-1-(4-fluorophenyl)-N-(methanesulfonyl)-4-(4-methoxy[1,4'-bipiperidin]-1'-yl)-1H-pyrazolo[3,4-b]pyridine-6-carboxamide] | 307.2% | 556.9% | 553 nM | 654 nM |
| O=C(NS(=O)(=O)C1CC1)c1cc(N2CCC(N3CCN(C4CC4)CC3)CC2)c2c(C3CCC3)nn(-c3ccccc3)c2n1 [Compound 550, 3-cyclobutyl-N-(cyclopropanesulfonyl)-4-[4-(4-cyclopropylpiperazin-1-yl)piperidin-1-yl]-1-phenyl-1H-pyrazolo[3,4-b]pyridine-6-carboxamide] | 347% | 605.45% | 173 nM | 361 nM |
| CC(C)N1CCN(C2CCN(c3cc(C(=O)NS(=O)(=O)N(C)C)nc4c3c(C3CCC3)nn4C3CCCCC3)CC2)CC1 [Compound 553, 3-cyclobutyl-1-cyclohexyl-N-(dimethylsulfamoyl)-4-{4-[4-(propan-2-yl)piperazin-1-yl]piperidin-1-yl}-1H-pyrazolo[3,4-b]pyridine-6-carboxamide] | 293% | 494.3% | 233 nM | 1730 nM |
| CCCN(C)S(=O)(=O)NC(=O)c1cc(N2CCC(N3CCN(C4CC4)CC3)CC2)c2c(C3CCC3)nn(-c3ccccc3)c2n1 [Compound 554, 3-cyclobutyl-4-[4-(4-cyclopropylpiperazin-1-yl)piperidin-1-yl]-N-[methyl(propyl)sulfamoyl]-1-phenyl-1H-pyrazolo[3,4-b]pyridine-6-carboxamide] | 269.45% | 481% | 56.9 nM | 108 nM |
| CS(=O)(=O)NC(=O)c1cc(N2CCC(N3CCN(C4CC4)CC3)CC2)c2c(C3CCC3)nn(-c3ccccc3)c2n1 [Compound 556, 3-cyclobutyl-4-[4-(4-cyclopropylpiperazin-1-yl)piperidin-1-yl]-N-(methanesulfonyl)-1-phenyl-1H-pyrazolo[3,4-b]pyridine-6-carboxamide] | 386% | 595.8% | 136 nM | 64.7 nM |
